According to patent US6506772B1, “Substituted [1,2,4]triazolo[1,5a]pyridine derivatives with activity as adenosine receptor ligands” (Hoffmann-La Roche Inc., priority 2000, dated 2003):

Tests used:
HA1 adenosine receptor = molecular target: T1, HA1 adenosine receptor (Homo sapiens, UniProt P30542); assay: Human adenosine A1 receptor affinity (Ki hA1); type: binding; details: affinity to human adenosine A1 receptor
T1 sequence (P30542 1-326): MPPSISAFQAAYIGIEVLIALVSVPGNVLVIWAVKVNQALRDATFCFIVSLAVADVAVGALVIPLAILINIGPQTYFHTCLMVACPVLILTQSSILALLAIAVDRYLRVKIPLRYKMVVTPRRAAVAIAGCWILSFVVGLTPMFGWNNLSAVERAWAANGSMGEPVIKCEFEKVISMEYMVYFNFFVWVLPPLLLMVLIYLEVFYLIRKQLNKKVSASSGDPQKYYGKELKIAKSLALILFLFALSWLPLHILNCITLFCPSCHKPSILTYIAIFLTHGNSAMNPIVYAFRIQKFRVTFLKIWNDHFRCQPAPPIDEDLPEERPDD

[1] = molecular target: T2, human adenosine A2A receptor (Homo sapiens, UniProt P29274); assay: Human adenosine A2A receptor [3H]-SCH-58261 binding assay; details: for Ki: affinity to human adenosine A2A receptor, read-out: Ki HA2A; for selectivity (A1/A2a): calculated ratio of the affinity to the HA1 receptor to the HA2a receptor
T2 construct: expressed in transfected cells; host or cells: CHO cells, Semliki Forest virus expression system; membrane preparation
T2 sequence (P29274 whole entry): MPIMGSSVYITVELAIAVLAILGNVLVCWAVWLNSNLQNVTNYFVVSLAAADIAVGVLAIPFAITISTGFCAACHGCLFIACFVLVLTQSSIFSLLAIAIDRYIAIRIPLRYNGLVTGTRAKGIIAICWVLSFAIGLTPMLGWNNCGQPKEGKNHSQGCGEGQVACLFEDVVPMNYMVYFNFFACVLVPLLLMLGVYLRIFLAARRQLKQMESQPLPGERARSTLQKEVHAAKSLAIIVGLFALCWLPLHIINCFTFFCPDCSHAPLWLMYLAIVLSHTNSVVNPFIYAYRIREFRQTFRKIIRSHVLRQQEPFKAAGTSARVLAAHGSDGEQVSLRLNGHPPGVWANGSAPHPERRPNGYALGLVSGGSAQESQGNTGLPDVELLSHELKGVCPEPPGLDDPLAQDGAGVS

Ki (HA1 adenosine receptor) | Ki [1] | selectivity (A1/A2a) [1] | Structure (SMILES)
209 nM | 5.4 nM | 38.7 | CC1CCC(C)N1C(=O)c1cc(N)n2nc(-c3ccc(Br)o3)nc2c1 (stereo not drawn) [Example 275, [5-Amino-2-(5-bromo-furan-2-yl)-[1,2,4]triazolo[1,5-a]pyridin-7-yl]-(2,5-dimethyl-pyrrolidin-1-yl)-methanone]
229 nM | 10.1 nM | 22.6 | CC(C)N(C(=O)c1cc(N)n2nc(-c3ccc(Br)o3)nc2c1)C(C)C [Example 276, 5-Amino-2-(5-bromo-furan-2-yl)-[1,2,4]triazolo[1,5-a]pyridine-7-carboxylic acid diisopropylamide]
129 nM | 3.2 nM | 40.3 | CCCCN(CC)C(=O)c1cc(N)n2nc(-c3ccc(Br)o3)nc2c1 [Example 277, 5-Amino-2-(5-bromo-furan-2-yl)-[1,2,4]triazolo[1,5-a]pyridine-7-carboxylic acid butyl-ethyl-amide]
94.3 nM | 5.6 nM | 16.8 | CCCCCN(C)C(=O)c1cc(N)n2nc(-c3ccc(Br)o3)nc2c1 [Example 278, 5-Amino-2-(5-bromo-furan-2-yl)-[1,2,4]triazolo[1,5-a]pyridine-7-carboxylic acid methyl-pentyl-amide]
1060 nM | 124 nM | 8.5 | CN(C)CCN(C)C(=O)c1cc(N)n2nc(-c3ccc(Br)o3)nc2c1 [Example 279, 5-Amino-2-(5-bromo-furan-2-yl)-[1,2,4]triazolo[1,5-a]pyridine-7-carboxylic acid (2-dimethylamino-ethyl)-methyl-amide]
4340 nM | 83.7 nM | 51.9 | Nc1cc(C(=O)N2CC=CC2)cc2nc(-c3nccs3)nn12 [Example 281, (5-Amino-2-thiazol-2-yl-[1,2,4]triazolo[1,5-a]pyridin-7-yl)-(2,5-dihydro-pyrrol-1-yl)-methanone]
4130 nM | 85.2 nM | 48.5 | C#CCN(C)C(=O)c1cc(N)n2nc(-c3nccs3)nc2c1 [Example 282, 5-Amino-2-thiazol-2-yl-[1,2,4]triazolo[1,5-a]pyridine-7-carboxylic acid methyl-prop-2-ynyl-amide]
3130 nM | 116 nM | 27.0 | C=CCN(C)C(=O)c1cc(N)n2nc(-c3nccs3)nc2c1 [Example 283, 5-Amino-2-thiazol-2-yl-[1,2,4]triazolo[1,5-a]pyridine-7-carboxylic acid allyl-methyl-amide]
3890 nM | 132 nM | 29.5 | CCCN(C)C(=O)c1cc(N)n2nc(-c3nccs3)nc2c1 [Example 284, 5-Amino-2-thiazol-2-yl-[1,2,4]triazolo[1,5-a]pyridine-7-carboxylic acid methyl-propyl-amide]
2720 nM | 83.5 nM | 32.6 | CC(C)N(C)C(=O)c1cc(N)n2nc(-c3nccs3)nc2c1 [Example 285, 5-Amino-2-thiazol-2-yl-[1,2,4]triazolo[1,5-a]pyridine-7-carboxylic acid isopropyl-methyl-amide]
2970 nM | 32.4 nM | 91.8 | CC1CCCN1C(=O)c1cc(N)n2nc(-c3nccs3)nc2c1 (stereo not drawn) [Example 286, (5-Amino-2-thiazol-2-yl-[1,2,4]triazolo[1,5-a]pyridin-7-yl)-(2-methyl-pyrrolidin-1-yl)-methanone]
2190 nM | 142 nM | 15.4 | CCCCN(C)C(=O)c1cc(N)n2nc(-c3nccs3)nc2c1 [Example 287, 5-Amino-2-thiazol-2-yl-[1,2,4]triazolo[1,5-a]pyridine-7-carboxylic acid butyl-methyl-amide]
1400 nM | 66.6 nM | 21.0 | CCN(C(=O)c1cc(N)n2nc(-c3nccs3)nc2c1)C(C)C [Example 288, 5-Amino-2-thiazol-2-yl-[1,2,4]triazolo[1,5-a]pyridine-7-carboxylic acid ethyl-isopropyl-amide]

The remaining lines, values behind:

Structure (SMILES) | Ki (HA1 adenosine receptor) | Ki [1] | selectivity (A1/A2a) [1]
CC1CN(C(=O)c2cc(N)n3nc(-c4ccc(Cl)o4)nc3c2)CC(C)O1 (stereo not drawn) [Example 257, [5-Amino-2-(5-chloro-furan-2-yl)-[1,2,4]triazolo[1,5-a]pyridin-7-yl]-(2,6-dimethyl-morpholin-4-yl)-methanone] | 819 nM | 28.9 nM | 28.3
CC1CCC(C)N1C(=O)c1cc(N)n2nc(-c3ccc(Cl)o3)nc2c1 (stereo not drawn) [Example 258, [5-Amino-2-(5-chloro-furan-2-yl)-[1,2,4]triazolo[1,5-a]pyridin-7-yl]-(2,5-dimethyl-pyrrolidin-1-yl)-methanone] | 221 nM | 7.2 nM | 30.6
NC(=O)C1CCN(C(=O)c2cc(N)n3nc(-c4ccc(Cl)o4)nc3c2)CC1 [Example 259, 1-[5-Amino-2-(5-chloro-furan-2-yl)-[1,2,4]triazolo[1,5-a]pyridine-7-carbonyl]-piperidine-4-carboxylic acid amide] | 540 nM | 119 nM | 4.5
COCCN(CCOC)C(=O)c1cc(N)n2nc(-c3ccc(Cl)o3)nc2c1 [Example 260, 5-Amino-2-(5-chloro-furan-2-yl)-[1,2,4]triazolo[1,5-a]pyridine-7-carboxylic acid bis-(2-methoxy-ethyl)-amide] | 270 nM | 13.4 nM | 20.2
CCN(Cc1ccccc1)C(=O)c1cc(N)n2nc(-c3ccc(Cl)o3)nc2c1 [Example 261, 5-Amino-2-(5-chloro-furan-2-yl)-[1,2,4]triazolo[1,5-a]pyridine-7-carboxylic acid benzyl-ethyl-amide] | 37.7 nM | 2.6 nM | 14.7
CCN(Cc1ccncc1)C(=O)c1cc(N)n2nc(-c3ccc(Cl)o3)nc2c1 [Example 262, 5-Amino-2-(5-chloro-furan-2-yl)-[1,2,4]triazolo[1,5-a]pyridine-7-carboxylic acid ethyl-pyridin-4-ylmethyl-amide] | 107 nM | 2.9 nM | 36.8
Nc1cc(C(=O)N2CC=C(c3ccccc3)CC2)cc2nc(-c3ccc(Cl)o3)nn12 [Example 263, [5-Amino-2-(5-chloro-furan-2-yl)-[1,2,4]triazolo[1,5-a]pyridin-7-yl]-(4-phenyl-3,6-dihydro-2H-pyridin-1-yl)-methanone] | 304 nM | 39.8 nM | 7.6
CCN(C)C(=O)c1cc(N)n2nc(-c3ccc(Br)o3)nc2c1 [Example 264, 5-Amino-2-(5-bromo-furan-2-yl)-[1,2,4]triazolo[1,5-a]pyridine-7-carboxylic acid ethyl-methyl-amide] | 277 nM | 6.5 nM | 42.7
Nc1cc(C(=O)N2CC=CC2)cc2nc(-c3ccc(Br)o3)nn12 [Example 265, [5-Amino-2-(5-bromo-furan-2-yl)-[1,2,4]triazolo[1,5-a]pyridin-7-yl]-(2,5-dihydro-pyrrol-1-yl)-methanone] | 564 nM | 7.4 nM | 76.2
C#CCN(C)C(=O)c1cc(N)n2nc(-c3ccc(Br)o3)nc2c1 [Example 266, 5-Amino-2-(5-bromo-furan-2-yl)-[1,2,4]triazolo[1,5-a]pyridine-7-carboxylic acid methyl-prop-2-ynyl-amide] | 246 nM | 3.1 nM | 79.4
C=CCN(C)C(=O)c1cc(N)n2nc(-c3ccc(Br)o3)nc2c1 [Example 267, 5-Amino-2-(5-bromo-furan-2-yl)-[1,2,4]triazolo[1,5-a]pyridine-7-carboxylic acid allyl-methyl-amide] | 181 nM | 4.3 nM | 42.0
CC(C)N(C)C(=O)c1cc(N)n2nc(-c3ccc(Br)o3)nc2c1 [Example 269, 5-Amino-2-(5-bromo-furan-2-yl)-[1,2,4]triazolo[1,5-a]pyridine-7-carboxylic acid isopropyl-methyl-amide] | 110 nM | 2.7 nM | 40.9
CCCCN(C)C(=O)c1cc(N)n2nc(-c3ccc(Br)o3)nc2c1 [Example 271, 5-Amino-2-(5-bromo-furan-2-yl)-[1,2,4]triazolo[1,5-a]pyridine-7-carboxylic acid butyl-methyl-amide] | 149 nM | 6.5 nM | 22.9
CCN(C(=O)c1cc(N)n2nc(-c3ccc(Br)o3)nc2c1)C(C)C [Example 272, 5-Amino-2-(5-bromo-furan-2-yl)-[1,2,4]triazolo[1,5-a]pyridine-7-carboxylic acid ethyl-isopropyl-amide] | 81 nM | 2.2 nM | 36.8
CC1C=CC(C)N1C(=O)c1cc(N)n2nc(-c3ccc(Br)o3)nc2c1 (stereo not drawn) [Example 273, [5-Amino-2-(5-bromo-furan-2-yl)-[1,2,4]triazolo[1,5-a]pyridin-7-yl]-(2,5-dimethyl-2,5-dihydro-pyrrol-1-yl)-methanone] | 251 nM | 3.9 nM | 64.4
C=CCN(CC=C)C(=O)c1cc(N)n2nc(-c3ccc(Br)o3)nc2c1 [Example 274, 5-Amino-2-(5-bromo-furan-2-yl)-[1,2,4]triazolo[1,5-a]pyridine-7-carboxylic acid diallylamide] | 116 nM | 2.8 nM | 41.6
